Patent US10023570B2 (Array BioPharma, Inc., priority 2015, dated 2018)
Structures can show the parent of a compound that is named as a salt.

Target: human KDR protein in HEK-293 cells (Homo sapiens (Human), UniProt P35968)
Assay: KDR Cell Assay (phospho-KDR in HEK-293 cells expressing inducible KDR)
Type: cell-based
Settings: pKDR Cell HEK 10% FBS IC50, HEK-293 cells expressing inducible KDR, VEGF stimulated
Method in brief: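 HEK-293 cells with inducible human KDR were treated with compound for 1 h in DMEM (0.25% DMSO final), then lysed. Phospho-KDR was quantified by Meso Scale immunoassay, expressed as percent of control, and IC50 taken where a 4-parameter logistic fit crossed 50 POC.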

Sequence of human KDR protein in HEK-293 cells (P35968 20-1356): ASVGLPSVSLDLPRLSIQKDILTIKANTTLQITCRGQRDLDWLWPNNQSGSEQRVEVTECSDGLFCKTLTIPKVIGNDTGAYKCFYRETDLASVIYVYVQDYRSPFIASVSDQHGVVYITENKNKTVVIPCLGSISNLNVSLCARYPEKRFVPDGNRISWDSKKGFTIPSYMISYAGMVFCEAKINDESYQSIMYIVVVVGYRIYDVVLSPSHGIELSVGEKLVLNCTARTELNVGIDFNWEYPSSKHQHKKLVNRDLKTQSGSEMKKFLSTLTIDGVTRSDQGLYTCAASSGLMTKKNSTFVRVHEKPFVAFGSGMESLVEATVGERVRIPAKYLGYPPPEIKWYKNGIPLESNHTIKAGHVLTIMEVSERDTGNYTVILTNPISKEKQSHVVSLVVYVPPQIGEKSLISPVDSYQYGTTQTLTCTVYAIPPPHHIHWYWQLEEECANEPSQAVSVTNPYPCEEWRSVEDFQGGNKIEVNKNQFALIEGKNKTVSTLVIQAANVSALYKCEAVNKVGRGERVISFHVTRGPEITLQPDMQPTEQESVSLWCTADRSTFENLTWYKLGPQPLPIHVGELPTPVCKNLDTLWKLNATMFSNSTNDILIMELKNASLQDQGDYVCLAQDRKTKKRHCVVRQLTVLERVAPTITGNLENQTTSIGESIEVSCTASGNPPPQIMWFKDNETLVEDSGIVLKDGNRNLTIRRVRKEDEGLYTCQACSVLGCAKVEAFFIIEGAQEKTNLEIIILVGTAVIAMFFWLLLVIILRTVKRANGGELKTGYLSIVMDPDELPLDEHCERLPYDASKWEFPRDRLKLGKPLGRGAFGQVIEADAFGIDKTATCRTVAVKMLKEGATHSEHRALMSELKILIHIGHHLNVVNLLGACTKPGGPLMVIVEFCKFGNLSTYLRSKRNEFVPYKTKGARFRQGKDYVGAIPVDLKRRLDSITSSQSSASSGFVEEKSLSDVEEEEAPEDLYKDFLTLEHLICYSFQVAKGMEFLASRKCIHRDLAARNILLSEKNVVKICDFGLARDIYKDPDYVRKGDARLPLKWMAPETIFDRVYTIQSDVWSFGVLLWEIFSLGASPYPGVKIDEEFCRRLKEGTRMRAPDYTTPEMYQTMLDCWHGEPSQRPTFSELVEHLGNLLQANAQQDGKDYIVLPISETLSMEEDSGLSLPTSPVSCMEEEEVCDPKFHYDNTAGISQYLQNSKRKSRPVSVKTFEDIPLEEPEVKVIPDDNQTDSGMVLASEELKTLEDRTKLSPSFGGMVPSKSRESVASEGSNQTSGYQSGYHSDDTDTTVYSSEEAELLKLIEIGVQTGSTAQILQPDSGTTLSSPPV

| Compound | IC50 (10% FBS) | IC50 |
| --- | --- | --- |
| Cn1cc(-c2cc(-c3ccc(N4CCN(C(=O)N5C6CCC5CC6)CC4)nc3)c3c(C#N)cnn3c2)cn1 [Example 95, 4-(6-(4-(7-azabicyclo[2.2.1]heptane-7-carbonyl)piperazin-1-yl)pyridin-3-yl)-6-(1-methyl-1H-pyrazol-4-yl)pyrazolo[1,5-a]pyridine-3-carbonitrile] | 1310 nM | – |
| Cn1cnc(CN2CCN(c3ccc(-c4cc(-c5cnn(C)c5)cn5ncc(C#N)c45)cn3)CC2)c1 [Example 449, 4-(6-(4-((1-methyl-1H-imidazol-4-yl)methyl)piperazin-1-yl)pyridin-3-yl)-6-(1-methyl-1H-pyrazol-4-yl)pyrazolo[1,5-a]pyridine-3-carbonitrile] | – | 1340 nM |
| Cn1cc(-c2cc(-c3ccc(N4[C@@H]5CC[C@H]4C[C@@H](NC(=O)OC(C)(C)C)C5)nc3)c3c(C#N)cnn3c2)cn1 [Example 194, tert-butyl ((1R,3r,5S)-8-(5-(3-cyano-6-(1-methyl-1H-pyrazol-4-yl)pyrazolo[1,5-a]pyridin-4-yl)pyridin-2-yl)-8-azabicyclo[3.2.1]octan-3-yl)carbamate] | 242 nM | – |
| Cn1cc(-c2cc(-c3ccc(N4CCN(C(=O)c5cccnc5)CC4)nc3)c3c(C#N)cnn3c2)cn1 [Example 73, 6-(1-methyl-1H-pyrazol-4-yl)-4-(6-(4-nicotinoylpiperazin-1-yl)pyridin-3-yl)pyrazolo[1,5-a]pyridine-3-carbonitrile] | 296 nM | – |
| Cn1cc(-c2cc(-c3ccc(N4CCN(C(=O)C5(c6ccccc6)CCCC5)CC4)nc3)c3c(C#N)cnn3c2)cn1 [Example 24, 6-(1-methyl-1H-pyrazol-4-yl)-4-(6-(4-(1-phenylcyclopentanecarbonyl)piperazin-1-yl)pyridin-3-yl)pyrazolo[1,5-a]pyridine-3-carbonitrile] | 960 nM | – |
| Cn1cc(-c2cc(-c3ccc(N4CCC(c5ccccc5)C4)nc3)c3c(C#N)cnn3c2)cn1 (stereo not drawn) [Example 533, 6-(1-methyl-1H-pyrazol-4-yl)-4-(6-(3-phenylpyrrolidin-1-yl)pyridin-3-yl)pyrazolo[1,5-a]pyridine-3-carbonitrile 2,2,2-trifluoroacetate] | – | 4860 nM |
| Cn1cc(-c2cc(-c3ccc(N4CCN(C(=O)N5CC6CC6C5)CC4)nc3)c3c(C#N)cnn3c2)cn1 (stereo not drawn) [Example 380, 4-(6-(4-(3-azabicyclo[3.1.0]hexane-3-carbonyl)piperazin-1-yl)pyridin-3-yl)-6-(1-methyl-1H-pyrazol-4-yl)pyrazolo[1,5-a]pyridine-3-carbonitrile] | – | 555 nM |
| Cn1cc(-c2cc(-c3ccc(N4CCN(S(=O)(=O)CC(C)(C)C)CC4)nc3)c3c(C#N)cnn3c2)cn1 [Example 89] | 189 nM | – |
| CC(C)O[C@H]1CCN(C(=O)N2CCN(c3ccc(-c4cc(-c5cnn(C)c5)cn5ncc(C#N)c45)cn3)CC2)C1 [Example 108, (S)-4-(6-(4-(3-isopropoxypyrrolidine-1-carbonyl)piperazin-1-yl)pyridin-3-yl)-6-(1-methyl-1H-pyrazol-4-yl)pyrazolo[1,5-a]pyridine-3-carbonitrile] | 531 nM | – |
| Cn1cc(-c2cc(-c3ccc(N4CCN(C(=O)[C@H](O)c5ccccc5)CC4)nc3)c3c(C#N)cnn3c2)cn1 [Example 82, (R)-4-(6-(4-(2-hydroxy-2-phenylacetyl)piperazin-1-yl)pyridin-3-yl)-6-(1-methyl-1H-pyrazol-4-yl)pyrazolo[1,5-a]pyridine-3-carbonitrile] | 91.2 nM | – |
| Cn1cc(-c2cc(-c3ccc(N4CCN(C(=O)C5(c6ccccc6)CC5)CC4)nc3)c3c(C#N)cnn3c2)cn1 [Example 25, 6-(1-methyl-1H-pyrazol-4-yl)-4-(6-(4-(1-phenylcyclopropane-1-carbonyl)piperazin-1-yl)pyridin-3-yl)pyrazolo[1,5-a]pyridine-3-carbonitrile] | 270 nM | – |
| Cn1cc(-c2cc(-c3ccc(N4CCC(NC(=O)[C@H]5CCCO5)CC4)nc3)c3c(C#N)cnn3c2)cn1 [Example 178, (R)—N-(1-(5-(3-cyano-6-(1-methyl-1H-pyrazol-4-yl)pyrazolo[1,5-a]pyridin-4-yl)pyridin-2-yl)piperidin-4-yl)tetrahydrofuran-2-carboxamide] | 426 nM | – |
| CN(C(=O)N1CCN(c2ccc(-c3cc(-c4cnn(C)c4)cn4ncc(C#N)c34)cn2)CC1)C1CC1 [Example 386, 4-(5-(3-cyano-6-(1-methyl-1H-pyrazol-4-yl)pyrazolo[1,5-a]pyridine-4-yl)pyridin-2-yl)-N-cyclopropyl-N-methylpiperazine-1-carboxamide 2,2,2-trifluoroacetate] | – | 1410 nM |
| Cn1cc(-c2cc(-c3ccc(N4CCCC5(CCNCC5)C4)nc3)c3c(C#N)cnn3c2)cn1 [Example 540, 4-(6-(2,9-diazaspiro[5.5]undecan-2-yl)pyridin-3-yl)-6-(1-methyl-1H-pyrazol-4-yl)pyrazolo[1,5-a]pyridine-3-carbonitrile dihydrochloride] | – | 1220 nM |

Further lines, with some results ahead:

| IC50 (10% FBS) | Compound | IC50 |
| --- | --- | --- |
| 1660 nM | Cn1cc(-c2cc(-c3ccc(N4CCN(C(=O)C5(c6ccc(Cl)cc6Cl)CC5)CC4)nc3)c3c(C#N)cnn3c2)cn1 [Example 343, 4-(6-(4-(1-(2,4-dichlorophenyl)cyclopropanecarbonyl)piperazin-1-yl)pyridin-3-yl)-6-(1-methyl-1H-pyrazol-4-yl)pyrazolo[1,5-a]pyridine-3-carbonitrile] | – |
| 2990 nM | Cn1cc(-c2cc(-c3ccc(C4CCN(C(=O)CC(C)(C)C)CC4)cc3)c3c(C#N)cnn3c2)cn1 [Example 302, 4-(4-(1-(3,3-dimethylbutanoyl)piperidin-4-yl)phenyl)-6-(1-methyl-1H-pyrazol-4-yl)pyrazolo[1,5-a]pyridine-3-carbonitrile] | – |
| 1770 nM | Cn1cc(-c2cc(-c3ccc(N4CCN(C(=O)C5(C(F)(F)F)CC5)CC4)nc3)c3c(C#N)cnn3c2)cn1 [Example 346, 6-(1-methyl-1H-pyrazol-4-yl)-4-(6-(4-(1-(trifluoromethyl)cyclopropanecarbonyl)piperazin-1-yl)pyridin-3-yl)pyrazolo[1,5-a]pyridine-3-carbonitrile] | – |
| 1200 nM | CC(C)[C@@H](O)C(=O)N1CCC2(CCN(c3ccc(-c4cc(-c5cnn(C)c5)cn5ncc(C#N)c45)cn3)CC2)C1 [Example 206, (R)-4-(6-(2-(2-hydroxy-3-methylbutanoyl)-2,8-diazaspiro[4.5]decan-8-yl)pyridin-3-yl)-6-(1-methyl-1H-pyrazol-4-yl)pyrazolo[1,5-a]pyridine-3-carbonitrile] | – |
| 1760 nM | Cc1cc(-c2cc(-c3ccc(N4CCN(C(=O)CC(C)(C)C)CC4)cc3)c3c(C#N)cnn3c2)n[nH]1 [Example 310, 4-(4-(4-(3,3-dimethylbutanoyl)piperazin-1-yl)phenyl)-6-(5-methyl-1H-pyrazol-3-yl)pyrazolo[1,5-a]pyridine-3-carbonitrile] | – |
| ≥ 5000 nM | Cn1cc(-c2cc(-c3ccc(N4CCN(C(=O)[C@H](O)c5ccccc5Cl)CC4)nc3)c3ccnn3c2)cn1 [Example 320, (R)-2-(2-chlorophenyl)-2-hydroxy-1-(4-(5-(6-(1-methyl-1H-pyrazol-4-yl)pyrazolo[1,5-a]pyridin-4-yl)pyridin-2-yl)piperazin-1-yl)ethanone] | – |
| 1710 nM | COCC1(C(=O)N2CCN(c3ccc(-c4cc(-c5cnn(C)c5)cn5ncc(C#N)c45)cn3)CC2)CC1 [Example 353, 4-(6-(4-(1-(methoxymethyl)cyclopropanecarbonyl)piperazin-1-yl)pyridin-3-yl)-6-(1-methyl-1H-pyrazol-4-yl)pyrazolo[1,5-a]pyridine-3-carbonitrile] | – |
